In article PMC5111045, “Modulation of NMDA channel gating by Ca^2+ and Cd^2+ binding to the external pore mouth” (Scientific Reports, 2016):

Tests used:
[1] = target: T1, NMDA receptor channel (GluN1a variant/GluN2B), wild-type (Rattus norvegicus, UniProt P35439+Q00960); test: Outside-out patch recordings of NMDA receptor currents, wild-type channel expressed in Xenopus oocytes; assay type: cell-based; details: 2 mM extracellular Ca2+
T1 construct: expressed in transfected cells; host or cells: Xenopus laevis oocytes (cRNA injection)
Procedure: (§1) The rat GluN1a variant and GluN2B cDNA clones were used in this study. Point mutations were made by site-directed mutagenesis using the QuickChange Site-Directed Mutagenesis kit (Stratagene, La Jolla, CA). Mutations were verified by DNA sequencing to ensure the lack of any inadvertent mutations. The capped cRNA transcripts were then synthesized using T7 and T3 mMESSAGE mMACHINE transcription kits (Ambion, Austin, TX), and were stored at −80 °C.
(§2) This study was carried out in accordance with the ethical information guidelines of the National Taiwan University College of Medicine. The protocols for the care and use of animals were approved by the National Taiwan University College of Medicine and College of Public Health Institutional Animal Care and Use Committee (IACUC). All efforts were made to minimize animal suffering. Adult female Xenopus laevis were anesthetized, and ovarian lobes containing stage V or VI oocytes were removed. Oocytes were dispersed after manual disruption of the egg sac, and were digested for 1 hr with collagenase type I (2 mg/ml) to remove the follicular layer. A mixture of GluN1a variant and GluN2B cRNAs with a ratio of 1:5 (i.e., 0.1–4 ng of GluN1a variant and 0.5–20 ng of GluN2B) (Kashiwagi et al. 2002) was injected into oocytes. Oocytes were maintained in the culture medium (96 mM NaCl, 2 mM KCl, 1.8 mM MgCl2, 1.8 mM CaCl2, 5 mM HEPES, and 50 ug/ml gentamycin, pH 7.6) at 18 °C for 2–3 days before electrophysiological recordings.
Oocytes were placed in a recording chamber containing Mg^2+-free bath solution (150 mM NaMeSO3, 5 mM NaCl, and 10 mM HEPES; pH 7.4). Outside-out patch recordings were obtained using fire-polished pipettes pulled from borosilicate capillaries (outer diameter, 1.55–1.60 mm; Hilgenberg, Malsfeld, Germany). Recording pipettes ([…]) were filled with the pipette solution containing 150 mM NaMeSO3, 5 mM NaCl, 5 mM EGTA, and 10 mM HEPES (pH 7.4). A seal was formed, and the outside-out patch configuration was obtained in Tyrode’s solution (150 mM NaCl, 4 mM KCl, 2 mM MgCl2, 2 mM CaCl2, and 10 mM HEPES; pH 7.4). The patch was then lifted from the bottom of the chamber and moved in front of a set of “theta glass” tubes (2.0 mm outer diameter pulled to an opening of ~300 μm in width; Warner Instrument, Hamden, CT) emitting external recording solutions. The standard external solution was Mg^2+-free Ca^2+-free Tyrode’s solution (pH 7.4), but 2 mM Ca^2+ or 0.1–100 μM Cd^2+ may be added to the external recording solution as specified in each different experimental condition. The glass-tube holder was connected to a stepper motor (SF-77B perfusion system, Warner Instrument) to achieve fast switch for rapid solution change. Drugs and salts were purchased from Sigma (St. Louis, MO). NMDA, glycine, and Cd^2+ were dissolved in water to make 100, 100, and 10 mM stock solutions, respectively. The stock solutions were then diluted into the external recording solution to make 1 to 100 μM Cd^2+, 1 to 300 μM NMDA, and 30 μM glycine. The NMDA currents were recorded at a membrane potential of −70 mV and at room temperature (~25 °C) with an […] amplifier, filtered at 1 kHz with a four-pole Bessel filter, digitized at 500 μs intervals, and stored using a Digidata-1322A analog/digital interface along with the pCLAMP software (all from MDS Analytical Technologies, Sunnyvale, CA). To plot the activation and the desensitization curves, a patch was moved from the NMDA- and glycine-free external solution to the external solution containing 0 to 100 μM NMDA and 30 μM glycine for 3 s (the desensitization prepulse), and then moved to another external solution containing 300 μM NMDA and 30 μM glycine for 3 s (the test pulse) before being moved back to the NMDA-free external solution again. The amplitude of the sustained currents in the desensitization prepulse in each different concentration of NMDA is normalized to the maximal current and plotted against the NMDA concentration to obtain the activation curve. […]

[2] = target: T2, E661AE662A double mutant NMDA channel (Rattus norvegicus, UniProt P35439+Q00960, E661A/E662A); test: Outside-out patch recordings, E661AE662A double mutant NMDA channel; assay type: cell-based; details: 2 mM extracellular Ca2+; n = 6, WT n = 9; P = 5.1*10^−5
T2 construct: expressed in transfected cells; host or cells: Xenopus laevis oocytes (cRNA injection)
Procedure: as §1, §2
Oocytes were placed in a recording chamber containing Mg^2+-free bath solution (150 mM NaMeSO3, 5 mM NaCl, and 10 mM HEPES; pH 7.4). Outside-out patch recordings were obtained using fire-polished pipettes pulled from borosilicate capillaries (outer diameter, 1.55–1.60 mm; Hilgenberg, Malsfeld, Germany). Recording pipettes ([…]) were filled with the pipette solution containing 150 mM NaMeSO3, 5 mM NaCl, 5 mM EGTA, and 10 mM HEPES (pH 7.4). A seal was formed, and the outside-out patch configuration was obtained in Tyrode’s solution (150 mM NaCl, 4 mM KCl, 2 mM MgCl2, 2 mM CaCl2, and 10 mM HEPES; pH 7.4). The patch was then lifted from the bottom of the chamber and moved in front of a set of “theta glass” tubes (2.0 mm outer diameter pulled to an opening of ~300 μm in width; Warner Instrument, Hamden, CT) emitting external recording solutions. The standard external solution was Mg^2+-free Ca^2+-free Tyrode’s solution (pH 7.4), but 2 mM Ca^2+ or 0.1–100 μM Cd^2+ may be added to the external recording solution as specified in each different experimental condition. The glass-tube holder was connected to a stepper motor (SF-77B perfusion system, Warner Instrument) to achieve fast switch for rapid solution change. Drugs and salts were purchased from Sigma (St. Louis, MO). NMDA, glycine, and Cd^2+ were dissolved in water to make 100, 100, and 10 mM stock solutions, respectively. The stock solutions were then diluted into the external recording solution to make 1 to 100 μM Cd^2+, 1 to 300 μM NMDA, and 30 μM glycine. The NMDA currents were recorded at a membrane potential of −70 mV and at room temperature (~25 °C) with an […] amplifier, filtered at 1 kHz with a four-pole Bessel filter, digitized at 500 μs intervals, and stored using a Digidata-1322A analog/digital interface along with the pCLAMP software (all from MDS Analytical Technologies, Sunnyvale, CA). […]

[3] = target: T3, T647A (GluN2B) mutant NMDA channel (Rattus norvegicus, UniProt P35439+Q00960, T647A); test: Outside-out patch recordings, T647A (GluN2B) mutant NMDA channel; assay type: cell-based; details: 2 mM Ca2+; P = 0.028
T3 construct: expressed in transfected cells; host or cells: Xenopus laevis oocytes (cRNA injection)
Procedure: as §1, §2
Oocytes were placed in a recording chamber containing Mg^2+-free bath solution (150 mM NaMeSO3, 5 mM NaCl, and 10 mM HEPES; pH 7.4). […] The NMDA currents were recorded at a membrane potential of −70 mV and at room temperature (~25 °C) with an […] amplifier, filtered at 1 kHz with a four-pole Bessel filter, digitized at 500 μs intervals, and stored using a Digidata-1322A analog/digital interface along with the pCLAMP software (all from MDS Analytical Technologies, Sunnyvale, CA). […]

wild-type NMDA channel = system: wild-type NMDA channel; design: method as in PMID 12451122; details: 1 mM Ca2+; decreased from 73 pS; cited from earlier work
[4] = system: triple mutant NMDA channel (three negatively charged DRPEER residues neutralized); design: method as in PMID 12451122; details: 1 mM Ca2+; decreased from 56 pS; cited from earlier work

T1 sequence (Q00960 27-1482, other chains not shown): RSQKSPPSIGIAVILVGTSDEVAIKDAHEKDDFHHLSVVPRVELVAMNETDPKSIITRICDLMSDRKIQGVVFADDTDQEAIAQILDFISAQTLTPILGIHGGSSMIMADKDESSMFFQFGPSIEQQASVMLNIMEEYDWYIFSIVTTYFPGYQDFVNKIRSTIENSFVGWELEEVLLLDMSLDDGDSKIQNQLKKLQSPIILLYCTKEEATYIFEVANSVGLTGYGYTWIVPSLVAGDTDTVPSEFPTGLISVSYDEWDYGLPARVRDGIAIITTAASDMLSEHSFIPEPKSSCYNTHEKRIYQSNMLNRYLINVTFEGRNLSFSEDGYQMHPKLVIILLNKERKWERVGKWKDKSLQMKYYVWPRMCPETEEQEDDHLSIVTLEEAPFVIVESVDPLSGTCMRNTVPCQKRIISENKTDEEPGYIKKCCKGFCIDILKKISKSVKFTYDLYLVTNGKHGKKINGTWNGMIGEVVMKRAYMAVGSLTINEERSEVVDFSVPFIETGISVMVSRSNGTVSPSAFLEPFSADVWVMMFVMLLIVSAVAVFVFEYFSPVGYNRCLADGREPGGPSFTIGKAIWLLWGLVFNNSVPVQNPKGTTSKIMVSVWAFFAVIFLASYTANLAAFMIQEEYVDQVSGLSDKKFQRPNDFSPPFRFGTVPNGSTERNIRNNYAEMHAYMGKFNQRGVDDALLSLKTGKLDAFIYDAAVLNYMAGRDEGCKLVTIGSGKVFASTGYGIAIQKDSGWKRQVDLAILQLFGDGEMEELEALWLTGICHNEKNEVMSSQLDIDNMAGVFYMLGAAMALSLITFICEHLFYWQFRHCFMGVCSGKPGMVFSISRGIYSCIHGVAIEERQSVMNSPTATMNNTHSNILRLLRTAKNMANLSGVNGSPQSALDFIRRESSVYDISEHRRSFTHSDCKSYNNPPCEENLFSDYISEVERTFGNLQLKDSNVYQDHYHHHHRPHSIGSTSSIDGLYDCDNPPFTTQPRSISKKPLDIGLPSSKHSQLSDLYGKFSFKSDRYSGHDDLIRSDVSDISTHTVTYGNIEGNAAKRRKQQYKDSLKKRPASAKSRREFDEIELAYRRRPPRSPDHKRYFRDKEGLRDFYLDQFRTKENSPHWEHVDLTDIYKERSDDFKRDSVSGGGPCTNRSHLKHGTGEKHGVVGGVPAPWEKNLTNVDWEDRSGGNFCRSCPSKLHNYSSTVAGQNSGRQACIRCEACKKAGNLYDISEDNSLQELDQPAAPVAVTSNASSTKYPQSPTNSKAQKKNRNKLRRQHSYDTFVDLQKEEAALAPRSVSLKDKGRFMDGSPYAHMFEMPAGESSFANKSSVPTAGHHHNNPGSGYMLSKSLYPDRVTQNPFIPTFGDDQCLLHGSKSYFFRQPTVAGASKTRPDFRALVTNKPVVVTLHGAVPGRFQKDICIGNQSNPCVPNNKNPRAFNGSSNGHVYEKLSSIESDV
T3 sequence (Q00960 27-1482 T647A, other chains not shown): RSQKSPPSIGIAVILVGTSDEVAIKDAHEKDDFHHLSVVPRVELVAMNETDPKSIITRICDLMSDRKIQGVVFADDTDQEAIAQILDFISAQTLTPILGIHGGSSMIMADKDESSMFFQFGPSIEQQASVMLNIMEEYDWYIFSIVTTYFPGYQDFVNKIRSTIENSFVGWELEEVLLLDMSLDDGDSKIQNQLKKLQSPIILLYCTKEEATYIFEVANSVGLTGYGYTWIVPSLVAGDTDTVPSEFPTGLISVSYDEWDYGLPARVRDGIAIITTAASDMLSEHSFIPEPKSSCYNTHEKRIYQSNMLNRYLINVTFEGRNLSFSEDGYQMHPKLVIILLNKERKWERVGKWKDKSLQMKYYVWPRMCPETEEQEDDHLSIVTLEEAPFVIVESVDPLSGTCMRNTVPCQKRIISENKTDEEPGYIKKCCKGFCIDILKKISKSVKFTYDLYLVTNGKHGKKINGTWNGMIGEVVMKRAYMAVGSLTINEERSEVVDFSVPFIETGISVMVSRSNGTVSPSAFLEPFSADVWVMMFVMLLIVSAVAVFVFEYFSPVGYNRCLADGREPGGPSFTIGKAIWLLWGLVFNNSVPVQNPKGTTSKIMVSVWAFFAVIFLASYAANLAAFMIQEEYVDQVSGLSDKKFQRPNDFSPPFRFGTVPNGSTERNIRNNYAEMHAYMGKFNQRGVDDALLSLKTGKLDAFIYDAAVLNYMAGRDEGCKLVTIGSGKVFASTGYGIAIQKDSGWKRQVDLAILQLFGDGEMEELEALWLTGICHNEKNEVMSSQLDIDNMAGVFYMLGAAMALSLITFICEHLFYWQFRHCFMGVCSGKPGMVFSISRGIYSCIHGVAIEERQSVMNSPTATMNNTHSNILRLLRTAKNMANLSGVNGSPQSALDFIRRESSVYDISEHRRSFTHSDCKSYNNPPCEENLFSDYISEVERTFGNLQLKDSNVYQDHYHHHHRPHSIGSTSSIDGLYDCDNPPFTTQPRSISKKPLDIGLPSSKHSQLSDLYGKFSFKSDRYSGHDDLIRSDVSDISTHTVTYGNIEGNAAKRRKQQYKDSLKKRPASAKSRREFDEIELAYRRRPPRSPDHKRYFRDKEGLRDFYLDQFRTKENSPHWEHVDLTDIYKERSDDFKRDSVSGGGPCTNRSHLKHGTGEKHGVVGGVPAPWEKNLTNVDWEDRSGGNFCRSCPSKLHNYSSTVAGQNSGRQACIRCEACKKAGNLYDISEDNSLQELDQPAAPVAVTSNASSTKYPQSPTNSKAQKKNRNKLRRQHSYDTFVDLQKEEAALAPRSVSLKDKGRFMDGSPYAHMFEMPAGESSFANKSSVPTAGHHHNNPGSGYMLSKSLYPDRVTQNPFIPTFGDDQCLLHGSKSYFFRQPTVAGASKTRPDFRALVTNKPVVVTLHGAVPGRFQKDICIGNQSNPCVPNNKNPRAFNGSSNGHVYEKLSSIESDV
T2 sequence (Q00960 27-1482, other chains not shown): as the sequence (Q00960 27-1482, other chains not shown) above

SMILES: [Ca+2] [Ca^2+]
- effect on NMDAR current, cation present during the NMDA pulse ([1]; 300 μM NMDA plus 30 μM glycine): decreases the NMDAR current
- effect on NMDAR current peak, cation applied before but not during the NMDA pulse ([1]; closed channel): evident decrease of the NMDAR current peak
- effect on sustained current (relative current) compared with WT channel [2]: significantly decreased
- relative hook current after wash-off of agonists and blocking cation, compared with WT channel [3]: significantly larger hook current
- overall current flow through the NMDA channel in Ca2+ (wild-type NMDA channel): 41 pS
- overall current flow through the NMDA channel in Ca2+ [4]: 45 pS
